Entries after “also recorded” stand apart in the source; their conditions may differ.
How the values were obtained:
[1] = biological target: T1, HSA site II (Homo sapiens, UniProt P02768); experiment: Zonal displacement chromatography on HSA column with (S)-ibuprofen and L-tryptophan (site II probes); format: binding; settings: 13% ACN; for Interaction with (S)-ibuprofen on HSA: competitor (S)-ibuprofen 5-20 µM in mobile phase, negative slope of 1/k vs concentration; for Binding profile at HSA Site II: competitor L-tryptophan 5-20 µM in mobile phase, plot of 1/k vs competitor concentration
T1 construct: catalogue number not given
Description: (§1) To gain deeper insights into HSA binding, displacement studies were conducted to further investigate the binding sites of the synthetic cannabinoids on this protein. […] These competitors are commonly used in displacement studies to elucidate binding interactions at specific HSA sites.
(§2) Various concentrations of the competitors were added to the mobile phase, based on previous studies.
(§3) The chromatographic data are plotted as 1/k versus the competitor concentration.
(§4) The analyses were performed in reversed-phase mode using as mobile phases mixtures of 67 mM potassium phosphate buffer solution (pH 7.0) with different proportions of ACN. […] All chromatographic analyses were performed at 25 ± 2 °C, under isocratic mode, with UV detection at 220, 254, and 300 nm. All mobile phases were prepared in a volume/volume ratio (v/v), filtered through polyamide membrane filters of 0.2 µm pore size from Whatman® GmbH (Dassel, Germany), and degassed in an ultrasonic bath (Soltec® Sonica® Ultrasonic cleaner) for at least 15 min before use.
(§5) Stock solutions of all synthetic cannabinoids were prepared in EtOH at the concentration of 0.2 mg/mL and further diluted with the mobile phase, the potassium phosphate buffer (67 mM, pH 7.0), to a final concentration of 50 μg/mL. All working solutions were filtered through a membrane of 0.45 µm pore size and vortexed for at least 30 s before injection. […] All solutions were stored at 4 °C. […] These concentrations were selected based on previous displacement studies. An aqueous buffer of a 67 mM solution of potassium phosphate was prepared by adjusting the pH to 7.0 with a solution of saturated NaOH. The aqueous buffer pH was controlled with a Crison® BasiC 20 pH meter.
(§6) Equation (5) can be used to describe the impact of the competitor (I) on the retention time of each analyte (A) [32, 58](5) 1/k=VMKI[I]/KAmL+VM/KAmL where KI is the association equilibrium constant of I at the binding site of competition with A, [I] is the concentration of the competitor in the mobile phase, and KA is the association equilibrium constant of A at the binding site of competition with I.
(§7) If a direct competition between the analyte and the competing agent occurs, a straight line with a positive slope is observed in the plot of 1/k versus [I]; if allosteric competition between the analyte and the competing agent occurs, a straight line with a negative slope is observed in the plot of 1/k versus [I]; and if random variations are observed, no competition between the analyte and the competing agent occurs.

[2] = biological target: human serum albumin (HSA) (Homo sapiens, UniProt P02768); experiment: HPAC zonal elution on CHIRALPAK HSA column, bound fraction determination; settings: for Bound Fraction (%b) / Retention factor (k): values at 100% aqueous buffer, extrapolated from log k vs % ACN (11-16%), 67 mM potassium phosphate buffer pH 7.0, 25 °C; for experimental %b to HSA (controls): ACN in mobile phase ranging from 2% to 20%
Description: Binding affinity studies were conducted using a series of commercially available synthetic cannabinoids (Figure 1). […] The binding affinity of the synthetic cannabinoids to HSA was measured based on previously established methods using HPAC [15, 35, 36]. […] The analyses were performed using zonal elution in reversed-phase mode. A potassium phosphate buffer solution (67 mM, pH 7.0) was selected as the mobile phase due to HSA’s stability in phosphate buffers, and to closely mimic physiological conditions. Several studies describe the use of this buffer in protein binding studies mimicking the physiological conditions of human plasma.
ACN was chosen for the HSA studies, as it is one of the most commonly used organic modifiers in HSA columns. However, a low percentage of the organic modifier was necessary to prevent protein denaturation and prolong the column’s lifespan. Additionally, the presence of an organic modifier must be carefully considered, as it can alter the number of available binding sites by affecting the spatial conformation of the protein [41].
To calculate the bound fraction (%b) to HSA, different proportions of organic modifier were added to the mobile phase, ranging from 11% to 15%. In the Supplementary Materials (Figures S1–S6), representative chromatograms for each synthetic cannabinoid are shown, as examples. […] All analyses were performed in triplicate. […] To determine the %b values in a 100% aqueous buffer, an extrapolation was performed by plotting the logarithm of the retention factor (log k) against the percentage of the organic modifier (Figure S7, Supplementary Materials).
To determine the experimental %b values for these controls, different proportions of ACN were added to the mobile phase, ranging from 2% to 20%.
The sample injections (10 µL) were carried out in triplicate, and the flow rate was set to 0.5 mL/min.
as §4
Zonal analysis was the approach selected for the development of this work. The retention of the analyte is directly related to its interaction with the immobilized HSA, and can be described with Equation (1).(1) k=(KA1n1+…+KAnnn)mL/VM
The retention factor (k) is related to the number of binding sites and to their corresponding equilibrium constants (KA). VM represents the void volume and mL the total moles of the analyte binding sites. Equation (2) was used to calculate the retention factor [58].(2) k=tr−t0/t0
tr corresponds to the retention time of the analyte and t0 to the dead time. The t0 was taken from each individual run and was considered to be equal to the solvent front.
One application of zonal elution in HPAC is to measure the binding affinity of a drug to an immobilized protein.

[3] = biological target: T2, HSA site I (Homo sapiens, UniProt P02768); experiment: Zonal displacement chromatography on HSA column with warfarin (site I probe); format: binding; settings: competitor warfarin 5-20 µM in mobile phase; 13% ACN; plot of 1/k vs competitor concentration
T2 construct: catalogue number not given
Description: as §1, §2, §3, §4, §5, §6, §7

[4] = test system: HSA; settings: cited from earlier work
[5] = test system: HSA; settings: cited from earlier work; remark: listed apart in the source
[6] = design: method as in PMID 26810883; settings: ultrafiltration and LC-MS; cited from earlier work

Chain of human serum albumin (HSA) (P02768 25-609): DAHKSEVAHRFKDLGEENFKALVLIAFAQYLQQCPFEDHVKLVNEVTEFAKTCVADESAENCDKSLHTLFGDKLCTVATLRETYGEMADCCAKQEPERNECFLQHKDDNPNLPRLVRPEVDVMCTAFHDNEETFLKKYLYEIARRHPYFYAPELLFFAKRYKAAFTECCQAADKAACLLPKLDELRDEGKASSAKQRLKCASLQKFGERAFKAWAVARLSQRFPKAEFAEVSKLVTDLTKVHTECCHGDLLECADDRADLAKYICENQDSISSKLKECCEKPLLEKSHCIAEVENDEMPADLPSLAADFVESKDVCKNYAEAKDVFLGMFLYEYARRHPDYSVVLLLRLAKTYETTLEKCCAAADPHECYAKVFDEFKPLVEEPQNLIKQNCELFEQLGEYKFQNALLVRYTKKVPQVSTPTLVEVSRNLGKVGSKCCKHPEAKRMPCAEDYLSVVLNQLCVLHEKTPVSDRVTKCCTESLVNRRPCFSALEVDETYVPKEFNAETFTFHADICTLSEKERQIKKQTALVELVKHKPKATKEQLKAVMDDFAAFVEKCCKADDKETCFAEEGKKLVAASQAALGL
T2 sequence (P02768 25-609): as above
T1 sequence (P02768 25-609): as above

SMILES	Interaction with (S)-ibuprofen on HSA [1]	Binding profile at HSA Site II [1]	Bound Fraction (%b) [2]	Retention factor (k) [2]	Binding profile at HSA Site I [3]	also measured
COC(=O)[C@@H](NC(=O)c1nn(CCCCCF)c2ccccc12)C(C)C [5F-AMB]	interact allosterically with (S)-ibuprofen; also recorded: Allosterically interacts with (S)-ibuprofen	do not compete with L-tryptophan; also recorded: Binding does not occur (no competition with L-tryptophan)	98.9%	87.30	compete with warfarin for site I; also recorded: Binding occurs (competition with warfarin)	
COC(=O)[C@@H](NC(=O)c1nn(Cc2ccc(F)cc2)c2ccccc12)C(C)C [AMB-FUBINACA]	interact allosterically with (S)-ibuprofen; also recorded: Allosterically interacts with (S)-ibuprofen	do not compete with L-tryptophan; also recorded: Binding does not occur (no competition with L-tryptophan)	99.7%	326.38	compete with warfarin for site I; also recorded: Binding occurs (competition with warfarin)	
COc1ccc2c(c1)c(CC(=O)O)c(C)n2C(=O)c1ccc(Cl)cc1 [indomethacin]						reported %b to HSA [4]: 97.8%
CC(C)(C)[C@H](NC(=O)c1nn(Cc2ccc(F)cc2)c2ccccc12)C(N)=O [ADB-FUBINACA]	Allosterically interacts with (S)-ibuprofen	neither site I nor site II is its primary binding site in HSA; also recorded: Binding does not occur (no competition with L-tryptophan)	99.8%	619.87	neither site I nor site II is its primary binding site in HSA; also recorded: Binding does not occur (no competition with warfarin)	
CCCCCn1nc(C(=O)N[C@H](C(N)=O)C(C)C)c2ccccc21 [AB-PINACA]	interact allosterically with (S)-ibuprofen; also recorded: Allosterically interacts with (S)-ibuprofen	do not compete with L-tryptophan; also recorded: Binding does not occur (no competition with L-tryptophan)	98.7%	79.11	compete with warfarin for site I; also recorded: Binding occurs (competition with warfarin)	
CC(C)[C@H](NC(=O)c1nn(CC2CCCCC2)c2ccccc12)C(N)=O	exhibits allosteric interactions with (S)-ibuprofen; also recorded: Allosterically interacts with (S)-ibuprofen	bind to both site I and site II of HSA; also recorded: Binding occurs (competition with L-tryptophan)	99.7%	294.40	bind to both site I and site II of HSA; also recorded: Binding occurs (competition with warfarin)	
N[C@@H](Cc1c[nH]c2ccccc12)C(=O)O [L-Tryptophan, L-tryptophan]						Affinity constant of competitor for HSA (Lit.) [5]: KI L-Tryptophan (M^−1) (Lit. 4.4 × 10^4 M^−1) [55]
O=C(c1cccc2ccccc12)c1nc2ccccc2n1CCCCCF [FUBIMINA]			99.9%	968.23		
CC(=O)CC(c1ccccc1)c1c(O)c2ccccc2oc1=O (centres unmarked) [Warfarin, warfarin]						Affinity constant of competitor for HSA (Lit.) [5]: KI Warfarin (M^−1) (Lit. 3.3 × 10^5 M^−1) [55]
Cc1ncc([N+](=O)[O-])n1CCO [metronidazole, reference compound]						experimental %b to HSA (controls) [2]: 19.78%; reported %b to HSA [4]: 20%
CN(C)CCCN1c2ccccc2Sc2ccc(Cl)cc21 [chlorpromazine, reference compound]						experimental %b to HSA (controls) [2]: 82.12%; reported %b to HSA [4]: > 90%
Cc1c(C(=O)c2cccc3ccccc23)c2cccc3c2n1[C@H](CN1CCOCC1)CO3 [WIN 55,212-2]						plasma protein binding [6]: 95%

Reference: article PMC12030568, “Binding Affinity of Synthetic Cannabinoids to Human Serum Albumin: Site Characterization and Interaction Insights” (Pharmaceuticals, 2025)
